From US20050233304A1, “Method of screening remedy for renal failure” (YAMANOUCHI PHARMACEUTICAL CO., LTD., priority 2002, published 2005) come the findings set out here.

As a reminder, the IC50 is the midpoint of a concentration-inhibition curve.

Format in all cases: cell-based
The target of one assay is T1, human FGK (Homo sapiens, UniProt Q9BXA5, A284G/P282A).
T1 construct: A complete cDNA coding for the FGK of the present invention was obtained by PCR using a human kidney cDNA; expressed in transfected cells; host or cells: HEK293 cells (ATCC), transient transfection with FuGENE6
T1 sequence (Q9BXA5 5-334 P282A/A284G): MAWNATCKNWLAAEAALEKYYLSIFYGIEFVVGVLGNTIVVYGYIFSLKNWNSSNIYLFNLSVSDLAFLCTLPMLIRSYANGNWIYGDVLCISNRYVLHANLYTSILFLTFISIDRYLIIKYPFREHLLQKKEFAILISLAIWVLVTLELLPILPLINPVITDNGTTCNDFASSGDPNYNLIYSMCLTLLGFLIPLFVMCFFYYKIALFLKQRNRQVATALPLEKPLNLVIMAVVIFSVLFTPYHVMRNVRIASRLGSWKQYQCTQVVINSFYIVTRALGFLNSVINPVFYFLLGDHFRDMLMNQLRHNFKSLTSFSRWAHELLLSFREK
In words: Screening of substances inhibiting FGK activity: pEF-BOS-Gqi + pSRE-luc luciferase reporter in HEK293 cells transfected with human FGK. The note with it: pEF-BOS-Gqi and human FGK plasmid, 24 hours with compound, DMSO control = 100%, read-out: Example 5 Inhibition of pGqi + pSRE-luc reporter activity IC50. As for the experimental part: An expression plasmid used in the Example for expressing a chimeric protein of Gq and Gi was prepared by cloning, a gene (hereinafter, to be referred to as Gqi gene) constructed by replacing 5 amino acids in the Gq C-terminal side (Glu-Tyr-Asn-Leu-Val; the amino acid sequence represented by SEQ ID NO:15) with 5 amino acids in the Gi C-terminal side (Asp-Cys-Gly-Leu-Phe; the amino acid sequence represented by SEQ ID NO:16) in accordance with the method of Conklin, B. R. et al. (Nature, 363, 274-276, 1993) into the plasmid pEF-BOS-dhfr. The constructed plasmid was named pEF-BOS-Gqi.
As the illustrative method, firstly, using Dulbecco's modified Eagle's medium (DMEM) containing 10% fetal bovine serum, HEK293 cells (obtained from ATCC) were dispensed in 1×10^5 cells per well portions into a 24-well plate (Asahi Technbglass) and cultured for 24 hours. Then transfection of 0.05 μg of a reporter plasmid pSRE-luc in which a serum response sequence was inserted into upstream of a luciferase gene (PathDetect™ SRE cis-Reporting System; Stratagene), 0.05 μg of pEF-BOS-Gqi and 0.5 μg at the maximum of a human FGK expression plasmid which is 0.6 μg in total per well was carried out using a transfection reagent (FuGENE6; Boehringer-Roche). Cells transfected with the pcDNA3.1 vector alone without containing FGK, together with the reporter plasmid and pEF-BOS-Gqi, was used as the control. Other conditions and measurement of the reporter activity were as described in Example 3. Increase in the reporter activity by the expression of FGK was observed. Additionally, dose-dependent activation by FGK was also observed.
Screening of a test substance was carried out using the screening system which uses changes in FGK activity as the index, constructed in Example 4.
Using 10% fetal bovine serum-containing Dulbecco's modified Eag;e's medium(DMEM),HEK293 cells(obtained from ATCC) were inoculated in 1×10^4 cells per well portions into a 96-well plate (Asahi Technoglass) and cultured at 37° C. for 24 hours. Transfection of 0.01 μg of the reporter plasmid pSRE-luc (Example 4), 0.03 μg of pEF-BOS-Gqi and 0.02 μg of a human FGK expression plasmid which is 0.06 μg in total per well was carried out using a transfection reagent (FuGENE6; Boehringer-Roche). After 6 hours of incubation at 37° C., a dimethyl sulfoxide solution of each test compound was added to become a final concentration of 30 μM, 10 μM, 3 μM, […], 0.3 μM or 0.1 μM, and then incubated at 37° C. for additional 24 hours. Thereafter, the reporter activity was measured to determine 50% activity inhibition concentration (IC50) of each test compound. As a control of the compound treatment, reporter activity when the same volume of dimethyl sulfoxide alone was added was regarded as 100%. Other conditions and measurement of reporter activity were as described in Example 4.

For the next assay, the system named is CTGF mRNA expression. In words: Inhibition of intrinsic CTGF mRNA expression in primary human proximal renal tubule epithelium cells (RPTEC), real time PCR. The note with it: 10 μM compound, 24 hours, CTGF/G3PDH, DMSO control = 100%. Here is the method: Primary culture cells of human proximal renal tubule epithelium (RPTEC; Asahi Technoglass) were plated at 2×10^5 cells per well into 12-well plates (Asahi Technoglass) using a proliferation medium for kidney epithelial cell use (Burette Kit REGM; Asahi Technoglass). After incubation for 24 hours at 37° C., each of the test compounds obtained in Example 5 (substances which inhibit FGK activity, namely FGK inverse agonists) was added thereto to a final concentration of 10 μM, and then incubated for additional 24 hours at 37° C. Thereafter, the cells were collected and the total RNA was purified using a spin column (RNeasy Mini Kit; Qiagen). Reverse transcription reaction was carried out using 1.5 μg of the total RNA and a reverse transcriptase (PowerScript Transcriptase; BD Biosciences) to obtain cDNA samples. Using each of them as the template, expressed amounts of CTGF and a housekeeping gene of glyceraldehyde 3-phosphate dehydrogenase (to be referred to as G3PDH hereinafter) were measured by real time PCR using PRISM 7700 Sequence Detector (PERKIN ELMER). In the PCR, SYBR Green PCR Master Mix (Applied Biosystems) was used, and after heating at 50° C. (2 minutes) and 95° C. (10 minutes), a cycle of 95° C. (15 seconds)/60° C. (60 seconds) was repeated for 40 times. For the detection of CTGF, an oligonucleotide represented by SEQ ID NO:17 was used as the forward primer, and an oligonucleotide represented by SEQ ID NO:18 was used as the reverse primer. For the detection of G3PDH, an oligonucleotide represented by SEQ ID NO:19 was used as the forward primer and an oligonucleotide represented by SEQ ID NO:20 was used as the reverse primer. A value calculated by dividing the expressed amount of CTGF by the expressed amount of G3PDH, both obtained by the PCR, was defined as the CTGF expression quantity per unit RNA quantity. Also, as a control of the compound treatment, the CTGF expression quantity per unit RNA quantity when the same volume of dimethyl sulfoxide alone was added was regarded as 100%. The inhibitory activity of CTGF expression obtained by the assay (inhibitory activity at a compound concentration of 10 μM) is shown in Table 1.

Assay [1] has as its system CTGF promoter activation by FGK. Description: Inhibition of CTGF promoter activation by FGK: pCTGF-luc reporter in HEK293 cells transfected with human FGK. As to conditions: HEK293 cells transfected with pCTGF-luc and human FGK plasmid; 24 hours with compound; DMSO control = 100%; read-out: Example 7 Inhibition of pCTGF-luc activity IC50. As for the experimental part:
Using Dulbecco's modified Eagle's medium (DMEM) containing 10% fetal bovine serum, HEK293 cells (obtained from ATCC) were dispensed in 1×10^5 cells per well portions into a 24-well plate (Asahi Technoglass) and cultured at 37° C. for 24 hours. Transfection of 0.1 μg of a reporter plasmid and 0.5 μg at the maximum of a human FGK expression plasmid which is 0.6 μg in total per well was carried out using a transfection reagent (FuGENE6; Boehringer-Roche) in accordance with the instructions attached thereto. In this case, the amount of the transfected genes in each of the all wells was adjusted to 0.6 μg in total per well by adding a plasmid vector (pcDNA3.1; Invitrogen). Cells transfected with the pcDNA3.1 vector alone without containing FGK, together with the reporter plasmid, was used as the control. The medium was discarded 24 hours after transfection, and the residue was lysed by adding 100 μl per well of a cell lysis buffer. A […] portion of the lysate was mixed with 100 μl of a luciferin substrate solution and allowed to undergo the reaction to be measured using a luminometer (ML3000; Dynatech Laboratories). Activation of the CTGF promoter and COLIA2 promoter by the expression of FGK was observed. Additionslly, dose-dependent activation by FGK was also observed.
Screening of a test compound constructed in Example 3 was carried out using the CTGF promoter activation system by FGK.
HEK293 cells (obtained from ATCC) were plated at 1×10^4 cells per well into 96-well plates (Asahi Technoglass) in Dulbecco's modified Eagle's medium containing 10% fetal bovine serum (DMEM). After incubation for 24 hours at 37° C., cells were transfected with 0.02 μg of pCTGF-luc (cf. Example 2) and 0.02 μg of a human FGK expression plasmid which is 0.04 μg in total per well was carried out using a transfection reagent (FuGENE6; Boehringer-Roche). After incubation for 6 hours at 37° C., a dimethyl sulfoxide solution of each test compound was added thereto to become a final concentration of 30 µM, 10 μM, 3 μM, […], 0.3 μM or […], and then incubated at 37° C. for additional 24 hours. Thereafter, the reporter activity was measured to determine 50% activity inhibition concentration (IC50) of each test compound. As a control of the compound treatment, reporter activity when the same volume of dimethyl sulfoxide alone was added was regarded as 100%. Other conditions and measurement of reporter activity were as described in Example 3. Substances which inhibit CTGF promoter activation by FGK were selected, and the substances having an IC50 value of 10 μM or less were shown in Table 1. It was confirmed that a substance which inhibits CTGF expression by the assay system, namely a substance useful as a renal failure treating agent can be certainly be screened.

Molecules are shown by their SMILES.

As for `COc1ccc(Cl)cc1Nc1nc(-c2cccs2)cs1` [No 2, N-(5-chloro-2-methoxyphenyl)-4-(2-thienyl)-1,3-thiazole-2-amine], the IC50 stood at 4.6 µM at human FGK and 16.1 µM in assay [1]. Moreover, the “Example 6 Inhibition Intrinsic CTGF mRNA Expression at 10 μM” value in the assay with CTGF mRNA expression is listed as 72%.

`CCOC(=O)c1c(C)nn(-c2ccc(NC(=O)c3ccccc3C(=O)O)cc2)c1C` [No 6, 2-[({4-[4-(ethoxycarbonyl)-3,5-dimethyl-1H-pyrazol-1-yl]phenyl}amino)carbonyl]benzoic acid]: the IC50 at human FGK was found to be 6.8 µM; in assay [1], 3.8 µM. In the assay on CTGF mRNA expression, the “Example 6 Inhibition Intrinsic CTGF mRNA Expression at 10 μM” value is 35%.

As to `CCOc1ccc(Nc2nc(-c3sc(N)nc3C)cs2)cc1` [No 1, N^2-(4-ethoxyphenyl)-4′-methyl-4,5′-bi-1,3-thiazole-2,2′-diamine], the IC50 was determined as 6.1 µM at human FGK and 14.1 µM in assay [1]. In addition, in the assay on CTGF mRNA expression, the “Example 6 Inhibition Intrinsic CTGF mRNA Expression at 10 μM” value is recorded as 62%.

As to `CC(=O)Nc1nc(C)c(-c2csc(Nc3cccc(C)c3)n2)s1` [No 3, N-[4′-methyl-2-[(3-methylphenyl)amino]-4,5′-bi-1,3-thiazol-2′-yl]acetamide hydrobromate], the values for the IC50 (at human FGK; in assay [1]) were 0.6 µM and 2.6 µM, respectively. The “Example 6 Inhibition Intrinsic CTGF mRNA Expression at 10 μM” value in the assay on CTGF mRNA expression is given as 79%.

For `Cc1cc(C(=O)C(F)(F)F)c(C)n1-c1ccc(NC(=O)c2ccccc2F)cc1` [No 7, N-{4-[2,5-dimethyl-3-(trifluoroacetyl)-1H-pyrrol-1-yl]phenyl}-2-fluorobenzamide], the IC50 on human FGK is 3.1 µM; in assay [1], 1.7 µM. For the same compound, the “Example 6 Inhibition Intrinsic CTGF mRNA Expression at 10 μM” value in the assay with CTGF mRNA expression is reported as 36%.

`CC(=O)Nc1nc(C)c(-c2csc(Nc3ccc(O)cc3)n2)s1` [No 5, N-{2-[(4-hydroxyphenyl)amino]-4′-methyl-4,5′-bi-1,3-thiazol-2′-yl}acetamide hydrobromate]: the IC50 at human FGK is 2.5 µM; in assay [1], 1.8 µM. The “Example 6 Inhibition Intrinsic CTGF mRNA Expression at 10 μM” value with CTGF mRNA expression came to 81%.

`CC(=O)Nc1ccc(-c2csc(Nc3cccc(C(F)(F)F)c3)n2)cc1` [No 4, N-[4-(2-{[3-(trifluoromethyl)phenyl]amino}-1,3-thiazol-4-yl)phenyl]acetamide]: the IC50 turned out to be 3.9 µM at human FGK and 3.6 µM in assay [1]. Besides, the “Example 6 Inhibition Intrinsic CTGF mRNA Expression at 10 μM” value with CTGF mRNA expression stood at 65%.
